Residue numbers refer to the chain shown, from its start.
How the values were obtained:
Assay in all cases: whole-cell patch clamp, peak current dose-response
Type in all cases: cell-based
rat P2X4R [1] = molecular target: T1, rat P2X4R (Rattus norvegicus, UniProt P51577, C159T)
T1 sequence (P51577 1-388 C159T): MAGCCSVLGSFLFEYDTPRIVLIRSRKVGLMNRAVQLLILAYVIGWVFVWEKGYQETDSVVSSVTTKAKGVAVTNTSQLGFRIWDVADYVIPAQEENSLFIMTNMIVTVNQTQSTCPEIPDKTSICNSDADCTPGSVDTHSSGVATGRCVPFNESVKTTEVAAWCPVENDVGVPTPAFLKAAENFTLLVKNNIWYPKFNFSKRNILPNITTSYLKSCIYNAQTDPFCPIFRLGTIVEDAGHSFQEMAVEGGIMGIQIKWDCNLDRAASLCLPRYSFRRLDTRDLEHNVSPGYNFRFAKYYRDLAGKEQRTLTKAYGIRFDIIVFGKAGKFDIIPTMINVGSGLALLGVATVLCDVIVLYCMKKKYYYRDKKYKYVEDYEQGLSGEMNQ

rat P2X4R [2] = molecular target: T2, rat P2X4R (Rattus norvegicus, UniProt P51577, C132A)
T2 sequence (P51577 1-388 C132A): T1 sequence (P51577 1-388 C159T) with C132A, T159C

rat P2X4R [3] = molecular target: T3, rat P2X4R (Rattus norvegicus, UniProt P51577, C217T)
T3 sequence (P51577 1-388 C217T): T1 sequence (P51577 1-388 C159T) with T159C, C217T

rat P2X4R [4] = molecular target: T4, rat P2X4R (Rattus norvegicus, UniProt P51577, C217R)
T4 sequence (P51577 1-388 C217R): T1 sequence (P51577 1-388 C159T) with T159C, C217R

rat P2X4R [5] = molecular target: T5, rat P2X4R (Rattus norvegicus, UniProt P51577, C132T)
T5 sequence (P51577 1-388 C132T): T1 sequence (P51577 1-388 C159T) with C132T, T159C

rat P2X4R [6] = molecular target: T6, rat P2X4R (Rattus norvegicus, UniProt P51577, C132T/C159T)
T6 sequence (P51577 1-388 C132T/C159T): T1 sequence (P51577 1-388 C159T) with C132T

rat P2X4R [7] = molecular target: T7, rat P2X4R (Rattus norvegicus, UniProt P51577, C116T)
T7 sequence (P51577 1-388 C116T): T1 sequence (P51577 1-388 C159T) with C116T, T159C

- EC50 (rat P2X4R [1]): 12 ± 4.1 µM
- EC50 (rat P2X4R [2]): 14 ± 4.1 µM
- EC50 (rat P2X4R [3]): 7.2 ± 2.9 µM
- EC50 (rat P2X4R [4]): 9.2 ± 2.3 µM
- EC50 (rat P2X4R [5]): 8.2 ± 2.1 µM
- EC50 (rat P2X4R [6]): 5.3 ± 0.8 µM
- EC50 (rat P2X4R [7]): 21 ± 4.1 µM
SMILES: Nc1ncnc2c1ncn2[C@@H]1O[C@H](COP(=O)(O)OP(=O)(O)OP(=O)(O)O)[C@@H](O)[C@H]1O [ATP]

Source: paper PMC3170524 (Physiological research / Academia Scientiarum Bohemoslovaca, 2010)
